According to US20220110902A1, “Methods of treating amyloid-beta peptide diseases” (Ecole Polytechnique Federale de Lausanne, priority 2016, published 2022):
“Also recorded” adds a separate entry of the source.

Tested on: SH-SY5Y neuroblastoma cell line expressing the APP Swedish K670N/M671L double mutation (APPSwe)
Assay: Immunostaining of intracellular Aβ deposits in APPSwe SH-SY5Y cells
Type: cell-based, human
Experimental: The SH-SY5Y neuroblastoma cell line expressing the APP Swedish K670N/M671L double mutation (APPSwe) was a kind gift of Prof. Cedazo-Minguez (Karolinska Institute, Sweden). Cells were grown in DMEM/F-12, supplemented with 10% fetal bovine serum (FBS, Gibco), GlutaMAX (100×, Gibco) and penicillin/streptomycin (1×, Gibco). Cells were selected in 4 μg/mL Geneticin® Selective Antibiotic (G418 Sulfate, Sigma) and grown for three generations before experiments with cells plated and passaged at 4×10^3 cells/ml and 60% confluence, respectively. Cells were cultured at 37° C. under a 5% CO2 atmosphere and tested for mycoplasma using Mycoprobe (#CUL001B, R&D systems) following the manufacturer's instructions. Cells were treated with 10 μg/mL dox, NR 1 or 3 mM, ISRIB 0.5 μM (Sigma), as indicated for 24 hours before cell harvesting or fixation. For the immunostaining, cells were fixed with 1× Formal-Fixx (Thermo Scientific) for 15 min. After 15 min permeabilization with 0.1% Triton X-100, cells were blocked in PBS supplemented with 5% fetal bovine serum for 1 hour and immunostained overnight, at 4° C., with the anti-β-Amyloid 1-42 (1:100, Millipore AB5078P). The secondary antibody was coupled to the Alexa-488 fluorochrome (Thermo Scientific), and nuclei were stained with DAPI (Invitrogen, D1306). After washing in PBS, cell slides were mounted with Dako mounting medium (Dako, S3023) and examined with a Zeiss LSM 700 confocal microscope (Carl Zeiss MicroImaging) equipped with a Plan-Apochromat 40×/1.3 NA oil immersion objective lens using a 488 nm laser. Laser power was set at the lowest intensity allowing clear visualization of the signal. Imaging settings were maintained with the same parameters for comparison between different experimental conditions.
The SH-SY5Y neuroblastoma cell line expresses the APP Swedish K670N/M671L double mutation (APPSwe) (Zheng et al., 2011) and accumulates intracellular Aβ amyloid aggregates. Cells were grown in DMEM/F-12, supplemented with 10% fetal bovine serum (FBS, Gibco), GlutaMAX (100×, Gibco) and penicillin/streptomycin (1×, Gibco). Cells were selected in 4 μg/mL Geneticin® Selective Antibiotic (G418 Sulfate, Sigma) and grown for three generations before experiments with cells plated and passaged at 4×10{right arrow over ( )}3 cells/ml and 60% confluence, respectively. Cells were cultured at 37° C. under a 5% CO2 atmosphere and tested for mycoplasma using Mycoprobe (#CUL001B, R&D systems), following the manufacturer's instructions. Myriocin was dissolved in DMSO.
Cells were treated with 10 uM Myriocin and Fumonisin B1 for 24 hours before harvesting or fixation (FIG. 3A). For immunostaining, cells were fixed with 1× Formal-Fixx (Thermo Scientific) for 15 min. […]

Structure (SMILES) | intracellular Aβ deposits (10 uM, 24 hours) | intracellular Aβ deposits (anti-β-Amyloid 1-42 immunodetection) (24 h, dox 10 μg/mL, NR 3 mM)
CCCCCCC(=O)CCCCCC/C=C/C[C@@H](O)[C@H](O)[C@@](N)(CO)C(=O)O [Myriocin, (E,2S,3R,4R)-2-amino-3,4-dihydroxy-2-(hydroxymethyl)-14-oxoicos-6-enoic acid] | significantly reduced; also recorded: markedly reduced | –
NC(=O)c1ccc[n+]([C@@H]2O[C@H](CO)[C@@H](O)[C@H]2O)c1 [NR, Nicotinamide Riboside triflate] | – | remarkable reduction
